Legend:
[1] = molecular target: Serine/threonine-protein kinase B-raf (Homo sapiens, UniProt P15056, V600E); test: (§1) Raf IC50 Assay: Compounds disclosed herein were tested against B-Raf (V600E) (PV3849, from Invitrogen) or C-Raf (Y340D/Y341D) (PV3805, from Invitrogen) in a time-resolved fluorescence energy transfer assay. The assay was carried out in reactions (10 uL) containing 0.0625 nM B-Raf or 0.5 nM C-Raf, 25 mM Tris pH7.4, 10 mM MgCl2, 0.5 mM EGTA, 0.5 mM […], 5 mM beta-glycerophosphate, 0.01% Triton X-100, 2.5 mM DTT, 0.1% BSA, 0.1 mM ATP, 13.7 nM GST-tagged MEK1 (Full-length protein with K97R mutation, recombinant protein purified from bacterial expression system) and 0-5 uM compounds disclosed herein (final concentration of 1% DMSO). The enzyme was incubated with the compounds at room temperature for 60 minutes and the reactions were initiated by the addition of ATP and GST-MEK1. After incubating at room temperature for 60 minutes, an equal volume of stop buffer containing 25 mM Tris pH7.4, 400 mM KF, 50 mM EDTA, 0.01% BSA, 0.01% Triton X-100, 1 test of Eu3+ Cryptate-conjugated rabbit polyclonal antibody anti-Phospho MEK1/2 (Ser217/221) and 1 test of d2-conjugated mouse monoclonal antibody anti-glutathione S-transferase was added to stop the reactions. Plates were sealed and incubated at room temperature for 2 hours, and then the TR-FRET signals were read on BMG PHERAstar FS instrument. The IC50 for each compound was calculated by non linear regression by Graphpad Prism software.
[2] = molecular target: RAF proto-oncogene serine/threonine-protein kinase (Homo sapiens, UniProt P04049, Y340D/Y341D); test: as §1
Chain of RAF proto-oncogene serine/threonine-protein kinase (P04049 whole entry Y340D/Y341D): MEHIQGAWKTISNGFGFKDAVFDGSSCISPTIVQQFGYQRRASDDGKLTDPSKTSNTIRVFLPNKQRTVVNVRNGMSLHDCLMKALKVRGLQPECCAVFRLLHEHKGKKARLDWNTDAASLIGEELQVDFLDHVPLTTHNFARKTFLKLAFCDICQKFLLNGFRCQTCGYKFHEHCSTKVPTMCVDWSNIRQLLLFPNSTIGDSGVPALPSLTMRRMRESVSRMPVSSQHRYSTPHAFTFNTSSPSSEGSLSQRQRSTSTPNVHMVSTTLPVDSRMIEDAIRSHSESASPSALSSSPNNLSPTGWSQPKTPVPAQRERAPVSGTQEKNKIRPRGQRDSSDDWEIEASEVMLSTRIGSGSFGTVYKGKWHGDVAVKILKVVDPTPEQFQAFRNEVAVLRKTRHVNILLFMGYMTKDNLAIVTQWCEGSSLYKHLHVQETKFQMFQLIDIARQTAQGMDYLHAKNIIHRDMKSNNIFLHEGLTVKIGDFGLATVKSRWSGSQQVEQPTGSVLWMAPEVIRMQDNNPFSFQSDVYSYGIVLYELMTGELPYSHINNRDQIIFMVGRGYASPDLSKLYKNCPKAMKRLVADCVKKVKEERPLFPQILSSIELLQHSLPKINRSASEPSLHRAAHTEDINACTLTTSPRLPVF

Chain of Serine/threonine-protein kinase B-raf (P15056 2-766 V600E limits assumed): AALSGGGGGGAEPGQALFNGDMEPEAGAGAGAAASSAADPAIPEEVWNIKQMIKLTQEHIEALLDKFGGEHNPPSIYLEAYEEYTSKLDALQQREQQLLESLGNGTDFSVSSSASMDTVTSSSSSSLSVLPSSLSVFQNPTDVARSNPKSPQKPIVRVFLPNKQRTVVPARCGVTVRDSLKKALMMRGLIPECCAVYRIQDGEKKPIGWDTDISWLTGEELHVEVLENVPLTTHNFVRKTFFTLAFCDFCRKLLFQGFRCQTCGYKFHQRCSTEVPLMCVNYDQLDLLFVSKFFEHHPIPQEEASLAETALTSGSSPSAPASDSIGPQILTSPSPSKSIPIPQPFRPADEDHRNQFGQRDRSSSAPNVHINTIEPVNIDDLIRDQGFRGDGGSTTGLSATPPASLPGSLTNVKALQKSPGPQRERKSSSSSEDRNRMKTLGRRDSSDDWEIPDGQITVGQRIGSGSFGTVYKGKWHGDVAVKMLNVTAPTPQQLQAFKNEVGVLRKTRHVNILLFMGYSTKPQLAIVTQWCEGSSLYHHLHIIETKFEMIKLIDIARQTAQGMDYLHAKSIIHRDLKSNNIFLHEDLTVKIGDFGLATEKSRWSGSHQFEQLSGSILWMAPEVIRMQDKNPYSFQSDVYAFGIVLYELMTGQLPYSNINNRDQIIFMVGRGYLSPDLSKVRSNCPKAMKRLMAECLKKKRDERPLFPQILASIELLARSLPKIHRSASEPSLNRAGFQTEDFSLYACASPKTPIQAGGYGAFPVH

SMILES | IC50 [1] [nM] | IC50 [2] [nM]
O=C1CCc2c(Oc3ccc4c(c3)C3C(O4)C3c3nc4ccc(C(F)(F)F)cc4[nH]3)ccnc2N1 (racemic) | 7.2 | 1.4
O=C1CCc2c(Oc3ccc4c(c3)C3C(O4)C3c3nc4ccc(-c5ccccc5)cc4[nH]3)ccnc2N1 (racemic) | 232 | 81
O=C1CCc2c(Oc3ccc4c(c3)C3C(C4)C3c3nc4ccc(C(F)(F)F)cc4[nH]3)ccnc2N1 (racemic) | 72 | 12
O=C1CCc2c(Oc3ccc4c(c3)C3C(O4)C3c3nc4cccc(Cl)c4[nH]3)ccnc2N1 (racemic) | 16 | < 0.25
O=C1CCc2c(ncc(Cl)c2Oc2ccc3c(c2)C2C(O3)C2c2nc3ccc(C(F)(F)F)cc3[nH]2)N1 (racemic) | > 1000 | 432
O=C1CCc2c(Oc3ccc4c(c3)C3C(O4)C3c3nc4cc(Cl)c(C(F)(F)F)cc4[nH]3)ccnc2N1 (racemic) |  | 5

Reference: ChEMBL document CHEMBL3886567, “Fused tricyclic compounds as Raf kinase inhibitors” (2016)
